Laboratory results from US9878982B2, “Pyridine derivatives and anti-mycobacterial use thereof” (priority 2014, dated 2018).
≈ marks a conversion by molar mass, not a printed value. Like-named read-outs stand apart in the source and are kept apart here.

How the values were obtained:
M. tuberculosis H37Rv = test: In vitro efficacy test using the H37Rv strain, Microplate Alamar Blue Assay (MABA) MIC; type: cell-based, Mycobacterium tuberculosis; details: for MIC: Mycobacterium tuberculosis, H37RV
Vero Cell = test: Vero cell cytotoxicity (IC50); type: cell-based; details: Chlorocebus sabaeus, Vero, African green monkey kidney cells
M. tuberculosis H37R = test: microbe, parasite or virus in culture; type: cell-based, Mycobacterium tuberculosis; details: for MIC: Mycobacterium tuberculosis, H37R, read-out: M. tuberculosis H37R LORA (MIC)
[1] = test system: Mycobacterium smegmatis strain ATCC19420; test: In vitro efficacy test using Mycobacterium smegmatis strain ATCC19420 (MIC); type: cell-based; details: CA-MHB + 0.02% Tween 80, 30° C., read after 72 hours; for MIC: Mycolicibacterium smegmatis, ATCC19420, 72 h
[2] = Hela cell cytotoxicity (CC50); details: human, HeLa cells (human cervical cancer cells), CC50_Hela, half of the toxic concentration
[3] = aerobic, 7H9 medium, Alamar Blue, read-out: M. tuberculosis H37Rv MABA (MIC)
[4] = wild-type H37Rv strain, two values per compound, read-out: MABA MIC vs. H37Rv
[5] = wild-type H37Rv strain, two values per compound

SMILES | MIC (M. tuberculosis H37Rv; [3]) [µg/mL] | IC50 (Vero Cell) [µg/mL] | MIC (M. tuberculosis H37R) [µg/mL] | MIC [1] [µg/mL] | CC50 [2] [µg/mL] | MIC (M. tuberculosis H37Rv; [4]) [µM] | MABA MIC vs. H37Rv (M. tuberculosis H37Rv; [5]) [µM] | M. tuberculosis H37Rv MABA (MIC) (M. tuberculosis H37Rv; aerobic, 7H9 medium, Alamar Blue) [µg/mL] | M. tuberculosis H37R LORA (MIC) (M. tuberculosis H37R) [µg/mL] | M. smegmatis ATCC19420 MIC [1] [µg/mL]
COc1ncc(-c2ccc(Cl)cc2)cc1C(c1ccccc1)C(O)(CCN(C)C)c1cccc(Br)c1 (single isomer, unassigned) [Compound 388, 2-(3-bromophenyl)-1-(5-(4-chlorophenyl)-2-methoxypyridin-3-yl)-4-(dimethylamino)-1-phenylbutan-2-ol] | 0.062 | > 32 | < 0.125 | 0.0156 | 26.2 (≈ 46.2 µM) | – | – | – | – | –
COc1ncc(-c2ccc(Cl)cc2)cc1C(c1ccccc1)C(O)(CCN(C)C)c1ccc(Br)cc1 (single isomer, unassigned) [Compound 390, 2-(4-bromophenyl)-1-(5-(4-chlorophenyl)-2-methoxypyridin-3-yl)-4-(dimethylamino)-1-phenylbutan-2-ol] | 0.087 | > 32 | < 0.125 | 0.0625 | 24.1 (≈ 42.7 µM) | – | – | – | – | –
COc1cccc(C(c2cc(-c3ccc(Cl)cc3)cnc2OC)C(O)(CCN(C)C)c2cc(Cl)cc(Cl)c2)c1OC (single isomer, unassigned) [Compound 395, 1-(5-(4-chlorophenyl)-2-methoxypyridin-3-yl)-2-(3,5-dichlorophenyl)-1-(2,3-dimethoxyphenyl)-4-(dimethylamino)butan-2-ol] | 0.031 | > 32 | < 0.125 | 0.039 | > 64 | – | – | – | – | –
COc1cccc(C(c2cc(-c3ccc(Cl)cc3)cnc2OC)C(O)(CCN(C)C)c2cccc(Cl)c2)c1OC (single isomer, unassigned) [Compound 399] | – | – | – | ≤ 0.0625 | > 64 | – | – | – | – | –
COc1nc(OC)c(C(c2ccccc2)C(O)(CCN(C)C)c2cccc3ccccc23)cc1-c1ccc(Cl)cc1 (single isomer, unassigned) [Compound 401, 1-(5-(4-chlorophenyl)-2,6-dimethoxypyridin-3-yl)-4-(dimethylamino)-2-(naphthalen-1-yl)-1-phenylbutan-2-ol] | 0.05 | > 32 | 0.19 (≈ 0.335 µM) | 0.0312 | > 64 | – | – | – | – | –
COc1ncc(-c2ccccc2)cc1C(c1ccccc1)C(O)(CCN(C)C)c1cccc2ccccc12 (stereo not drawn) [Compound 9, 4-(dimethylamino)-1-(2-methoxy-5-phenylpyridin-3-yl)-2-(naphthalen-1-yl)-1-phenylbutan-2-ol] | 1.08 | > 50 | 0.72 (≈ 1.43 µM) | 0.0312 | 30.4 (≈ 60.4 µM) | 0.46 | 0.36 | – | – | –
COc1ncc(-c2cccnc2)cc1C(c1ccccc1)C(O)(CCN(C)C)c1cccc2ccccc12 (stereo not drawn) [Compound 19, 4-(dimethylamino)-1-(6-methoxy-[3,3′-bipyridin]-5-yl)-2-(naphthalen-1-yl)-1-phenylbutan-2-ol] | 2.85 | > 50 | 3.11 (≈ 6.17 µM) | 0.5 | 10.3 (≈ 20.4 µM) | – | – | – | – | –
COc1ncc(-c2ccccc2)cc1C(c1ccccc1)C(O)(CCN(C)C)c1ccccc1 (stereo not drawn) [Compound 22, 4-(dimethylamino)-1-(2-methoxy-5-phenylpyridin-3-yl)-1,2-diphenylbutan-2-ol] | 1.48 | > 50 | 1.15 (≈ 2.54 µM) | – | 12 (≈ 26.4 µM) | – | – | – | – | –
COc1ncc(-c2ccccc2)cc1C(c1ccccc1)C(O)(CCN(C)C)c1cccc(F)c1F (stereo not drawn) [Compound 31, 2-(2,3-difluorophenyl)-4-(dimethylamino)-1-(2-methoxy-5-phenylpyridin-3-yl)-1-phenylbutan-2-ol] | 0.58 | > 50 | 0.46 (≈ 0.942 µM) | 0.25 | 28.1 (≈ 57.5 µM) | – | – | – | – | –
COc1ncc(-c2ccccc2)cc1C(c1ccccc1)C(O)(CCN(C)C)c1cc(F)cc(F)c1 (stereo not drawn) [Compound 35, 2-(3,5-difluorophenyl)-4-(dimethylamino)-1-(2-methoxy-5-phenylpyridin-3-yl)-1-phenylbutan-2-ol] | 0.73 | > 50 | 0.37 (≈ 0.757 µM) | ≤ 0.0625 | 28.9 (≈ 59 µM) | – | – | – | – | –
COc1ncc(-c2ccccc2)cc1C(c1ccccc1)C(O)(CCN(C)C)c1cc(F)ccc1F (stereo not drawn) [Compound 39, 2-(2,5-difluorophenyl)-4-(dimethylamino)-1-(2-methoxy-5-phenylpyridin-3-yl)-1-phenylbutan-2-ol] | 0.68 | > 50 | 0.71 (≈ 1.45 µM) | 0.125 | – | – | – | – | – | –
COc1ncc(-c2ccccc2)cc1C(c1cccc(Cl)c1)C(O)(CCN(C)C)c1ccccc1 (stereo not drawn) [Compound 43, 1-(3-chlorophenyl)-4-(dimethylamino)-1-(2-methoxy-5-phenylpyridin-3-yl)-2-phenylbutan-2-ol] | 1.18 | > 50 | 1.42 (≈ 2.92 µM) | 0.125 | – | – | – | – | – | –
COc1ncc(-c2ccccc2)cc1C(c1ccc(Cl)cc1)C(O)(CCN(C)C)c1ccccc1 (stereo not drawn) [Compound 47, 1-(4-chlorophenyl)-4-(dimethylamino)-1-(2-methoxy-5-phenylpyridin-3-yl)-2-phenylbutan-2-ol] | 1.25 | > 50 | 0.75 (≈ 1.54 µM) | 0.125 | – | – | – | – | – | –
COc1ncc(-c2ccccc2)cc1C(c1ccccc1F)C(O)(CCN(C)C)c1ccccc1 (stereo not drawn) [Compound 51, 4-(dimethylamino)-1-(2-fluorophenyl)-1-(2-methoxy-5-phenylpyridin-3-yl)-2-phenylbutan-2-ol] | 1.2 | > 50 | 1.77 (≈ 3.76 µM) | ≤ 0.0625 | – | – | – | – | – | –
COc1ncc(-c2ccccc2)cc1C(c1cccc(F)c1)C(O)(CCN(C)C)c1ccccc1 (stereo not drawn) [Compound 55, 4-(dimethylamino)-1-(3-fluorophenyl)-1-(2-methoxy-5-phenylpyridin-3-yl)-2-phenylbutan-2-ol] | 1.15 | > 50 | 2.06 (≈ 4.38 µM) | 0.125 | – | – | – | – | – | –
COc1ncc(C2CCCC2)cc1C(c1ccccc1)C(O)(CCN(C)C)c1cccc2ccccc12 (stereo not drawn) [Compound 63] | – | > 50 | – | – | 52.9 (≈ 107 µM) | – | – | 0.75 | 1.41 | <0.0625
COc1ncc(-c2ccccc2)cc1C(c1ccc(F)cc1)C(O)(CCN(C)C)c1ccccc1 (stereo not drawn) [Compound 70, 4-(dimethylamino)-1-(4-fluorophenyl)-1-(2-methoxy-5-phenylpyridin-3-yl)-2-phenylbutan-2-ol] | 1.49 | > 50 | 1.33 (≈ 2.83 µM) | 0.125 | 13.7 (≈ 29.1 µM) | – | – | – | – | –
COc1cccc(C(c2cc(-c3ccccc3)cnc2OC)C(O)(CCN(C)C)c2ccccc2)c1OC (stereo not drawn) [Compound 71, 1-(2,3-dimethoxyphenyl)-4-(dimethylamino)-1-(2-methoxy-5-phenylpyridin-3-yl)-2-phenylbutan-2-ol] | 1.4 | > 50 | 1.47 (≈ 2.87 µM) | ≤ 0.0625 | – | – | – | – | – | –
COc1ncc(C2CCOCC2)cc1C(c1ccccc1)C(O)(CCN(C)C)c1cccc2ccccc12 (stereo not drawn) [Compound 75, 4-(dimethylamino)-1-(2-methoxy-5-(tetrahydro-2H-pyran-4-yl)pyridin-3-yl)-2-(naphthalen-1-yl)-1-phenylbutan-2-ol] | 1.32 | > 50 | 2.73 (≈ 5.35 µM) | 0.125 | 22.5 (≈ 44 µM) | – | – | – | – | –
COc1ncc(-c2ccccc2F)cc1C(c1ccccc1)C(O)(CCN(C)C)c1cccc2ccccc12 (stereo not drawn) [Compound 83, 4-(dimethylamino)-1-(5-(2-fluorophenyl)-2-methoxypyridin-3-yl)-2-(naphthalen-1-yl)-1-phenylbutan-2-ol] | 1.41 | > 50 | 0.57 (≈ 1.09 µM) | 0.125 | – | – | – | – | – | –
COc1ncc(-c2cccc(F)c2)cc1C(c1ccccc1)C(O)(CCN(C)C)c1cccc2ccccc12 (stereo not drawn) [Compound 87, 4-(dimethylamino)-1-(5-(3-fluorophenyl)-2-methoxypyridin-3-yl)-2-(naphthalen-1-yl)-1-phenylbutan-2-ol] | 0.48 | > 50 | 1.18 (≈ 2.27 µM) | ≤ 0.0625 | 62.8 (≈ 121 µM) | – | – | – | – | –
COc1ncc(-c2cccc(Cl)c2)cc1C(c1ccccc1)C(O)(CCN(C)C)c1cccc2ccccc12 (stereo not drawn) [Compound 111] | 2.73 | > 50 | 1.36 (≈ 2.53 µM) | 0.5 | – | – | – | – | – | –
COc1ncc(-c2ccc(Br)cc2)cc1C(c1ccccc1)C(O)(CCN(C)C)c1cc(F)ccc1F (stereo not drawn) [Compound 308, 1-(5-(4-bromophenyl)-2-methoxypyridin-3-yl)-2-(2,5-difluorophenyl)-4-(dimethylamino)-1-phenylbutan-2-ol] | 0.09 | > 32 | 0.19 (≈ 0.335 µM) | – | > 64 | – | – | – | – | –
COc1ncc(-c2ccc(Cl)cc2)cc1C(c1ccc(Cl)cc1)C(O)(CCN(C)C)c1cccc2ccccc12 (stereo not drawn) [Compound 329] | 0.08 | > 32 | 2.02 (≈ 3.53 µM) | – | > 64 | – | – | – | – | –
COc1cc(-c2cnc(OC)c(C(c3ccccc3)C(O)(CCN(C)C)c3cccc4ccccc34)c2)ccc1Cl (stereo not drawn) [Compound 379] | – | – | – | 0.125 | 61.8 (≈ 109 µM) | – | – | – | – | –
NNC(=O)c1ccncc1 [isoniazide, isoniazid, reference compound] | – | – | – | – | – | 0.37 | 0.53 | – | – | –
CO[C@H]1/C=C/O[C@@]2(C)Oc3c(C)c(O)c4c(O)c(c(/C=N/N5CCN(C)CC5)c(O)c4c3C2=O)NC(=O)/C(C)=C\C=C\[C@H](C)[C@H](O)[C@@H](C)[C@@H](O)[C@@H](C)[C@H](OC(C)=O)[C@@H]1C [rifampin, reference compound] | – | – | – | – | – | 0.12 | 0.24 | – | – | –
